Literature values, collected in patent publication US20100062042A1, “Methods, Systems and Devices for Administration of Chlorine Dioxide” (priority 2008, published 2010).

Legend:
[1] = test system: Pseudomonas aeruginosa (P. aeruginosa); conditions: see U.S. Application No. 61/150,685
[2] = particularly in chilled water
[3] = test system: methicillin-resistant Staphylococcus aureus (MRSA); conditions: see U.S. Application No. 61/150,685

In the case of `[O][Cl+][O-]` [chlorine dioxide, Chlorine dioxide], the “Effectiveness against P. aeruginosa” value [1] is given as “effective”, the Solubility in water [2] is given as “high solubility in water” and the “Effectiveness against MRSA” value [3] is given as “effective”.
